Measurements: PubChem BioAssay (NCI)
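Tested at 5 concentrations; 48 h exposure; 96-well plates; endpoints linearly interpolated, else capped at highest concentration. Abbreviation: GI50, concentration required for 50% inhibition of growth. TGI: concentration producing complete growth inhibition.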

Key:
Assay in all cases: NCI anticancer screen, dose series, 48 h
MALME-3M melanoma = tested on: MALME-3M melanoma
SK-MEL-5 melanoma = tested on: SK-MEL-5 melanoma
UACC-257 melanoma = tested on: UACC-257 melanoma
MOLT-4 leukemia = tested on: MOLT-4 leukemia
HCC-2998 colon = tested on: HCC-2998 colon
SK-OV-3 ovarian = tested on: SK-OV-3 ovarian
HCT-116 colon = tested on: HCT-116 colon
OVCAR-5 ovarian = tested on: OVCAR-5 ovarian
NCI/ADR-RES ovarian = tested on: NCI/ADR-RES ovarian
T-47D breast = tested on: T-47D breast

Compound	TGI (MALME-3M melanoma) [µM]	TGI (SK-MEL-5 melanoma) [µM]	TGI (UACC-257 melanoma) [µM]	TGI (MOLT-4 leukemia) [µM]	TGI (HCC-2998 colon) [µM]	TGI (SK-OV-3 ovarian) [µM]	TGI (HCT-116 colon) [µM]	TGI (OVCAR-5 ovarian) [µM]	GI50 (NCI/ADR-RES ovarian) [µM]	TGI (NCI/ADR-RES ovarian) [µM]	GI50 (SK-MEL-5 melanoma) [µM]	GI50 (UACC-257 melanoma) [µM]	GI50 (MOLT-4 leukemia) [µM]	GI50 (HCC-2998 colon) [µM]	GI50 (SK-OV-3 ovarian) [µM]	GI50 (HCT-116 colon) [µM]	GI50 (OVCAR-5 ovarian) [µM]	GI50 (MALME-3M melanoma) [µM]	GI50 (T-47D breast) [µM]	TGI (T-47D breast) [µM]
CC(C(=O)c1ccc(O)cc1)C1(O)C(=O)Nc2c(Cl)cc(Cl)cc21 (stereo not given)	> 100	31.4	33.3	> 100	> 100	> 100	> 100	> 100	–	–	–	–	–	–	–	–	–	–	–	–
COC(=O)c1ccc(N/C=C(/C#N)c2ccsc2)cc1	36.2	–	> 100	> 100	44.5	–	21.8	> 100	–	–	–	–	–	–	–	–	–	–	–	–
COc1ccc(C2C(C(=O)O)=C(CO)Oc3cc4c(cc32)OCO4)c(OC)c1 (stereo not given)	> 100	> 100	> 100	> 100	–	> 100	> 100	–	–	–	–	–	–	–	–	–	–	–	–	–
CN(C)C(=S)/N=C(\N)N(C)C	> 100	> 100	> 100	> 100	> 100	> 100	> 100	> 100	–	–	–	–	–	–	–	–	–	–	–	–
N#Cc1cc2c(=S)[nH]c(=S)[nH]c2nc1SCc1ccccc1	–	52.3	> 100	> 100	79	> 100	> 100	> 100	28.1	> 100	20.7	47.4	43.3	24.6	> 100	29.8	76.2	–	–	–
CNC(=O)NCCCCC(NC(=O)OCc1ccccc1)C(=O)OCc1ccccc1 (stereo not given)	47	> 100	34.5	40.9	36.9	> 100	> 100	> 100	–	–	–	–	–	–	–	–	–	–	–	–
CCSc1nnc(-c2ccc3ccccc3c2O)n1-c1ccccc1	> 100	–	> 100	> 100	> 100	> 100	–	–	–	–	–	> 100	> 100	> 100	> 100	–	–	69.7	–	–
CC(C)(C)CC(C)(C)c1cc2c(O)c(c1)Cc1cc(C(C)(C)CC(C)(C)C)cc(c1O)Cc1cc(C(C)(C)CC(C)(C)C)cc(c1O)Cc1cc(C(C)(C)CC(C)(C)C)cc(c1O)Cc1cc(C(C)(C)CC(C)(C)C)cc(c1O)Cc1cc(C(C)(C)CC(C)(C)C)cc(c1O)Cc1cc(C(C)(C)CC(C)(C)C)cc(c1O)Cc1cc(C(C)(C)CC(C)(C)C)cc(c1O)C2	> 100	> 100	> 100	> 100	> 100	–	> 100	> 100	–	–	–	–	–	–	–	–	–	–	–	–
C=CC(=O)OCCCS(=O)(=O)[O-].C=CC(=O)OCCCS(=O)(=O)[O-].NC1CCCCC1N.[Pt+4]	> 25	> 25	> 25	> 25	> 25	> 25	> 25	> 25	–	–	> 25	> 25	> 25	> 25	> 25	> 25	> 25	> 25	–	–
CC1=C(C(=O)NCc2ccccc2)C(c2ccc(N(C)C)cc2)C(C(=O)NCc2ccccc2)=C(C)N1	> 100	> 100	> 100	> 100	> 100	> 100	> 100	> 100	–	–	–	–	–	–	–	–	–	–	–	–
COc1ccc(C#CC2=C(Br)C(=O)OC2)cc1	–	14.3	26.4	> 50	–	–	35.7	28.8	12	33.6	7.58	11.9	4.44	–	–	1.4	14.7	–	–	–
O=C(/C=C/c1ccco1)N1CCN(Cc2ccccc2)CC1	–	> 100	> 100	> 100	> 100	> 100	> 100	> 100	–	–	–	–	–	–	–	–	–	–	–	–
COc1cc2ccnc(-c3n[nH]c4cc(OC)c(OC)cc34)c2cc1OC	> 100	> 100	> 100	> 100	> 100	> 100	> 100	> 100	–	–	–	–	–	–	–	–	–	–	–	–
CC(C)=CC1(C)/C(=N\O)C(C)(CC(C)C)C(=O)N1O (stereo not given)	> 100	> 100	> 100	> 100	> 100	> 100	> 100	> 100	–	–	–	–	–	–	–	–	–	–	–	–
NC(CCSCCF)C(=O)O (stereo not given)	–	–	–	> 100	–	> 100	> 100	> 100	–	–	–	–	–	–	–	–	–	–	–	–
O=C(/C=C/c1cc(O)ccc1O)c1ccc(Cl)cc1	–	> 100	> 100	> 100	–	–	41.6	38.7	19.6	53.9	55	51.3	> 100	–	–	16.7	17.4	–	36.5	> 100

Compound	TGI (MALME-3M melanoma) [µM]	TGI (SK-MEL-5 melanoma) [µM]	TGI (UACC-257 melanoma) [µM]	TGI (MOLT-4 leukemia) [µM]	TGI (HCC-2998 colon) [µM]	TGI (SK-OV-3 ovarian) [µM]	TGI (HCT-116 colon) [µM]	TGI (OVCAR-5 ovarian) [µM]	GI50 (NCI/ADR-RES ovarian) [µM]	TGI (NCI/ADR-RES ovarian) [µM]	GI50 (SK-MEL-5 melanoma) [µM]	GI50 (UACC-257 melanoma) [µM]	GI50 (MOLT-4 leukemia) [µM]	GI50 (HCC-2998 colon) [µM]	GI50 (SK-OV-3 ovarian) [µM]	GI50 (HCT-116 colon) [µM]	GI50 (OVCAR-5 ovarian) [µM]	GI50 (MALME-3M melanoma) [µM]	GI50 (T-47D breast) [µM]	TGI (T-47D breast) [µM]
Cc1c(-c2cc(-c3ccccc3)n[nH]c2=O)c2ccccc2n1C	> 100	> 100	> 100	> 100	> 100	> 100	> 100	> 100	–	–	–	–	–	–	–	–	–	–	–	–
C=CC(=O)N1CCC(CNc2ncnc(N)c2-c2ccc(Oc3ccccc3)cc2)CC1	67	27.6	> 100	66	46.7	70	> 100	> 100	24.6	79.4	14.3	38.5	18.6	21	18	30.1	46.7	23.9	–	–
Nc1ncnc2c1N=CN(Oc1ccccc1)N2	32.2	> 100	> 100	> 100	–	> 100	> 100	> 100	–	–	–	–	–	–	–	–	–	–	–	–
CC(C)(C)[Si](C)(C)O/N=C\c1cccc(O[Si](C)(C)C(C)(C)C)c1	62.1	34.2	46.2	36.8	34.7	36.2	34.1	35	–	–	–	–	–	–	–	–	–	–	–	–
O=C(CC(=O)c1cccc2ccccc12)C(=O)Nc1nccs1	> 100	> 100	> 100	> 100	> 100	> 100	> 100	> 100	–	–	–	–	–	–	–	–	–	–	–	–
CC/C(=N/O)C(C)C(=O)CCC(=O)Nc1ccc(Cl)cc1 (stereo not given)	> 100	> 100	> 100	> 100	> 100	> 100	> 100	> 100	–	–	–	–	–	–	–	–	–	–	–	–
COc1ccc(/C=C\c2cc(OC)c(OC)c(OC)c2)cc1N/C=C\C(=O)c1c[nH]c2ccccc12	57.2	0.0201	> 100	> 100	> 100	> 100	10.4	> 100	< 0.01	43.3	< 0.01	> 100	< 0.01	< 0.01	< 0.01	< 0.01	< 0.01	5	–	–
COc1ccccc1NC(=O)C1=C(C)NC(C)=C(C(=O)Nc2ccccc2OC)C1c1ccc(C2C(C(=O)Nc3ccccc3OC)=C(C)NC(C)=C2C(=O)Nc2ccccc2OC)cc1	7.94	8.14	6.17	17.8	3.56	26	2.7	10.7	–	–	–	–	–	–	–	–	–	–	–	–
Nc1ccccc1-n1c2c(c3ccccc3c1=O)C(=O)c1ccccc1-2	85.5	> 100	> 100	> 100	> 100	21.5	> 100	> 100	–	51.3	–	–	–	–	–	–	–	–	–	–
NC(=S)N/N=C1/C(=O)N(c2ccccc2)C(=O)C1C(=O)Nc1ccccc1 (stereo not given)	> 100	> 100	> 100	> 100	> 100	> 100	> 100	> 100	–	–	–	–	–	–	–	–	–	–	–	–
Cc1cccc(/C=N/N=C(\N)NO)n1	> 100	> 100	> 100	> 100	> 100	> 100	> 100	–	–	–	–	–	–	–	–	–	–	–	–	–
CCCCCCCCCCCc1cc(=O)c2c(O)cccc2o1	> 100	> 100	> 100	> 100	> 100	> 100	> 100	> 100	–	–	–	–	–	–	–	–	–	–	–	–
COC(=O)CCC(=O)Nc1cc(C)ccc1C	> 100	> 100	> 100	> 100	> 100	> 100	> 100	–	–	–	–	–	–	–	–	–	–	–	–	–
CC1=CC[C@@H]2C(=O)C=CC=C[C@H]12.[C-]#[O+].[C-]#[O+].[C-]#[O+].[Fe]	> 100	> 100	> 100	> 100	> 100	> 100	> 100	> 100	–	–	> 100	> 100	> 100	> 100	> 100	> 100	> 100	> 100	–	–
CC(C)(C)c1cc(C#N)c2c(c1)C(=O)OC2(c1ccccc1)c1ccccc1C#N (stereo not given)	> 100	–	> 100	> 100	–	> 100	> 100	> 100	–	–	–	–	–	–	–	–	–	–	–	–
